From US7652021B2, “Compounds useful for DPP-IV enzyme inhibition” (Sanofi-Aventis, priority 2003, dated 2010)
Where a name gives a salt, the structure may show the parent alone.

Target: T1, DPP-IV enzyme (solubilized crude extractum from CaCo/Tc-7 cells) (Homo sapiens, UniProt P27487)
T1 construct: solubilized crude extractum from CaCo/Tc-7 cells; endogenous in cells; host or cells: CaCo/Tc-7 cells (solubilized crude extract)
Experiment: DPP-IV enzyme inhibitory activity, fluorometric H-Gly-Pro-AMC assay
Format: biochemical
Conditions: H-Gly-Pro-AMC substrate 250 μM final; 60 min preincubation at 37° C.; 30 min reaction at 37° C.; Tris-HCl pH=7.5
Procedure: DPP-IV enzyme inhibitory activties of the compounds with the general formula (I) were determined by the following method: […]
Applied Conditions of the Assay:
The reaction of the DPP-IV enzyme and the H-Gly-Pro-AMC substrate is recorded by the liberation of AMC (7-amino-4-methylcoumarin) at 37° C. in 100 mM Tris-HCl, pH=7.5 (assay buffer). Standard curve of AMC is linear up to 31.25 μM concentration, therefore we used the relative fluorescence unit (RFU) of the AMC formed. It is detected using 360 nm excitation and 465 emmission filters (integration time 30 μs, Gain 25, No. of Flashes 50) by Tecan Spectrofluor Plus plate reader. Under these conditions enzyme reaction is linear for at least 30 min, and the enzyme dependence is linear up to 2.5 μg protein (up to 700 RFU). Using 1-0.8 μg of extracted protein Km for H-Gly-Pro-AMC is 50 μM. Higher than 500 μM substrate concentration caused fluorescent detection problems (inner filter effect) that can be solved by dilution of the samples.
The assay is designed to detect as efficiently as possible the active inhibitors using a 60 min preincubation time at 37° C. The assay is conducted by adding 0.8-1 μg protein extract in 10 μl enzyme sulution (using assay buffer: 100 mM Tris-HCl, pH=7.5) to the wells containing the test compounds in 10 μl volume and the 55 μl assay buffer (65 μl assay buffer in the case of controlls). After the preincubation period, the reaction is started by the addition of 25 μlmM H-Gly-Pro-AMC substrate solution (250 μM final concentration). The final test volume is 100 μl and the test solution contains 1% DMSO coming from the test compounds solution. Reaction time is 30 min at 37° C., and the reaction is stopped by adding 300 μl 1M Na-acetate buffer, pH=4.2. The fluorescence (RFU) of AMC formed is detected using 360 nm excitation and 465 emission filters in Tecan spectrofluor Plus plate reader (30 μs integration time, Gain 25 No. of Flashes 50). Inhibition % are calculated using the RFU of control and RFU of blank.

T1 sequence (P27487 whole entry): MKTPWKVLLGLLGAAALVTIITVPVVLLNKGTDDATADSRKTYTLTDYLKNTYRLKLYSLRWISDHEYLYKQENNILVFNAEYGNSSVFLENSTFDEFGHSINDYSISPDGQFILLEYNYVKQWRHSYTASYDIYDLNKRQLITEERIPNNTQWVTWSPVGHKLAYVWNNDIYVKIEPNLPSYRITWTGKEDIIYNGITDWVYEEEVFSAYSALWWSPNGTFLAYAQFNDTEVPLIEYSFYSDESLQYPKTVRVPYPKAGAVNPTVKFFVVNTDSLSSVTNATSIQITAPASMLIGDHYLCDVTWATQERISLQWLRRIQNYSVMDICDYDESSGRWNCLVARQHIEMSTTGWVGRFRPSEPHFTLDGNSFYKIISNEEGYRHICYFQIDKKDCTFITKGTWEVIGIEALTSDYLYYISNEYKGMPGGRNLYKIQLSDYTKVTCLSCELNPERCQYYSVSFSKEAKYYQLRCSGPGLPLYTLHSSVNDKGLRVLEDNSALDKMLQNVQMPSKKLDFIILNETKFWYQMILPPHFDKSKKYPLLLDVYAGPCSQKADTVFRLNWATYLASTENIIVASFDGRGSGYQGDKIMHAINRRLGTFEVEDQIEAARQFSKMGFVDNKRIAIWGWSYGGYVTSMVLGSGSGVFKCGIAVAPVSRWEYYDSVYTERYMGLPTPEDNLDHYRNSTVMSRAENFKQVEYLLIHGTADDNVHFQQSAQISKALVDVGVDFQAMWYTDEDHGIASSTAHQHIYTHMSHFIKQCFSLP

IC50 [nM]	Structure (SMILES)
16	N#Cc1ccc(CNC23CC4CC(CC(NCC(=O)N5CC(F)(F)C[C@H]5C#N)(C4)C2)C3)cc1 [Example 27, (2S)-1-(N-{3-[(4-cyanobenzyl)amino]-1-adamantyl}glycyl)-4,4-difluoropyrrolidine-2-carbonitrile]
30	N#C[C@@H]1CCCN1C(=O)CNC1C2CCC1CN(c1ncccn1)C2 (stereo partly drawn) [Example 40, (2S)-1-[N-(3-pyrimidin-2-yl-3-azabicyclo[3.2.1]oct-8-yl)glycyl]pyrrolidine-2-carbonitrile]
21	N#C[C@H]1COCN1C(=O)CNC12CC3CC(C1)CC(Nc1ncccn1)(C3)C2 [Example 9, (4S)-3-{N-[3-(pyrimidin-2-ylamino)-1-adamantyl]glycyl}-1,3-oxazolidine-4-carbonitrile]

Test system: not given
Experiment: not given
Conditions: not given

melting point [°C]	Structure (SMILES)
50 to 52	N#C[C@@H]1CC(F)(F)CN1C(=O)CNC1C2CCC1CN(c1ncccn1)C2 (stereo partly drawn)
> 300	Cl.Cl.N#C[C@@H]1CC(F)(F)CN1C(=O)CNC1C2CCC1CN(c1ncccn1)C2 (stereo partly drawn)
169 to 172	CC1(NCC(=O)N2CC(F)(F)C[C@H]2C#N)CC2CCC(C1)N2c1ncccn1.Cl.Cl (stereo partly drawn)
149 to 152	N#C[C@@H]1CCCN1C(=O)CNC1C2CCC1CN(c1ncccn1)C2 (stereo partly drawn) (as salt: hydrochloride) [Example 40, (2S)-1-[N-(3-pyrimidin-2-yl-3-azabicyclo[3.2.1]oct-8-yl)glycyl]pyrrolidine-2-carbonitrile]

Continued, compound first:

Structure (SMILES)	melting point [°C]
N#C[C@H]1COCN1C(=O)CNC12CC3CC(C1)CC(Nc1ncccn1)(C3)C2 (as salt: hydrochloride) [Example 9, (4S)-3-{N-[3-(pyrimidin-2-ylamino)-1-adamantyl]glycyl}-1,3-oxazolidine-4-carbonitrile]	205 to 207
N#Cc1ccc(CNC23CC4CC(CC(NCC(=O)N5CC(F)(F)C[C@H]5C#N)(C4)C2)C3)cc1 (as salt: hydrochloride) [Example 27, (2S)-1-(N-{3-[(4-cyanobenzyl)amino]-1-adamantyl}glycyl)-4,4-difluoropyrrolidine-2-carbonitrile]	226 to 231
